From PMC2751816, “Functional, Non-Clonal IgM^a-Restricted B Cell Receptor Interactions with the HIV-1 Envelope gp41 Membrane Proximal External Region” (PLoS ONE, 2009)

Experiments:
[1] = test system: naïve splenic C57BL/6 B cells; test: Flow cytometry: APC-labeled tetramer staining of C57BL/6 splenic B cells; type: cell-based, mouse (C57BL/6)
Protocol: (§1) N-biotinylated, linker/spacer-containing peptides used to make tetramers are detailed in Table S4 and Fig. 7A. Peptides were synthesized and purified using reverse-phase HPLC (Primm Biotechnology). To produce tetramerized forms of each peptides, 200 µM peptide and 6 µM APC-labeled streptavadin (SA) were combined at equal volumes, and mixtures were incubated at 4°C for 4 h. Unbound peptide was removed from peptide-APC complexes by centrifugal filtration using an Amicon Centriprep YM30 column (Millipore Corporation). Purified tetramer preparations were determined using the Micro BSA protein assay kit (Pierce Biotechnology).
FACS staining of single cell suspensions (≥2×10^6) was conducted using pre-mixed combinations of fluorochrome-labeled Abs and APC-conjugated B cell tetramers at empirically-determined optimal concentrations. All Abs were from BD unless otherwise stated. Primary antibodies used were: PerCP anti-B220, FITC anti-IgD, FITC, PE or PE-Cy7 anti-IgM, PE anti-CD5, FITC anti-CD11b, PE-Cy7 anti-CD19, FITC anti-CD21, PE-Cy7 anti-CD23 (eBiosciences), and PE-Cy7 anti-CD93 (eBiosciences). Other reagents included biotinylated Abs against dump channel markers: Thy1 (Abcam), F4/80 (Abcam), CD11c, Gr-1, TER-119, and NK-1.1, secondary staining SA-Texas Red conjugate; v-amine live/dead violet dye (Molecular Probes), and Fc block (anti-CD16/32).
Staining was conducted at 4°C in several sequential steps in FACS staining buffer (1X PBS with 2% FCS, 0.1% NaN3), washing twice between steps. Cells were first incubated with v-amine live/dead dye for 15 min, then stained with APC-labeled tetramers for 30 min (and in some experiments, cold tetramer was incubated at 10 fold molar excess for 1 h, prior to staining with APC-labeled tetramers). Cells were then stained with Fc block, followed by incubation with combinations of primary Abs, and secondary staining with SA-Texas Red, each for 30 min. Data (≥2.5×10^5 events/sample) were acquired using an LSRII flow cytometer and Cell Quest software (BD Immunocytometry systems). FACS Analysis was performed using FlowJo software (Tree Star). […]

[2] = test system: splenic B cells, C57BL/6 congenic (IgH^a); test: Flow cytometry: tetramer staining of splenic B cells from C57BL/6 congenic (IgH^a) mice; type: cell-based, mouse (B6Igh^a); conditions: C57BL/6 mice homozygous for Igh^a; Fig. 5
Protocol: as §1
Female C57BL/6, BALB/c, B6Igh^a, and CB17 (BALBc Igh^b) inbred mouse strains (8–12 wks of age) were purchased from Charles River Laboratories. All mice were housed in the Duke University Animal Facility in a pathogen-free environment with 12 h light/dark cycles at 20–25°C under AALAC guidelines and in accordance with all Institutional Animal Care and Use Committee and Duke University Institutional Biosafety Committee-approved animal protocols. […]
(§2) FACS staining of single cell suspensions (≥2×10^6) was conducted using pre-mixed combinations of fluorochrome-labeled Abs and APC-conjugated B cell tetramers at empirically-determined optimal concentrations. […]

[3] = test system: surface Ig on BALB/c splenic B cells; test: Microscopy of BCR cap formation (co-capping); type: cell-based, mouse (BALB/c); conditions: anti-Ig stimulation, Fig. 4F
Protocol: Purified naïve splenic B cells were incubated on ice for 30 min with Alexa 488-labeled wheat germ agglutinin (Invitrogen) and 10 µg/ml R-PE-labeled goat anti-mouse IgM+IgG (H+L) F(ab)2 and APC-labeled gp41 MPER. After extensive washing, cells were stimulated for indicated times. Images were acquired with a Nikon TE2000-E2 inverted microscope employing a 40X magnification lens from a CoolSNAPPHQ2 monochrome camera.

[4] = test system: expressed IgM^+ VH repertoire of splenic BALB/c B cells; test: VH family usage in gp41 MPER tetramer-sorted IgM^+ B cells (5' RACE); design: species or system mouse (BALB/c); conditions: compared to total IgM^+ BALB/c B cells; Fisher Exact test; two sorts; Fig. 6B
From the text: For sorting of gp41 MPER tetramer-binding B cells, single cell splenic suspensions were obtained from 5–10 naïve BALB/c 8 wk females, pooled, and purified by negative depletion with CD43 MACS beads (Miltenyi Biotechnology). The resulting B cell enriched fraction was stained as described in the flow cytometry methods section and sorted into B220^+ CD19^+ gp41 MPER^+ fractions using a BDFACS Aria. Sorting gates for the gp41 MPER^+ fractions were set to include all events greater than baseline staining without tetramer. Purity of sorted populations was verified by a 1000-event post-sort step.
For 5′ RACE analysis, gp41 MPER^+ fractions (or purified, unsorted splenic B cells) were spun down and washed, immediately after sorting. DNAse-free RNA was extracted and concentrated using RNEasy Mini and Micro kits, respectively (Qiagen) and quantitated using a NanoDrop ND-1000 spectrophotometer (Fisher). cDNA was synthesized by oligo-dT priming using SuperScript III (Invitrogen) and IgM-specific 5′ RACE products were amplified with the First Choice RLM-RACE PCR kit (Ambion), using mouse HC̃-specific primers in combination with 5′ RACE primers, according to the manufacturer's instructions. PCR products were cloned into pGEM-T Easy vectors (Promega), transformed in GC5 competent cells (CLP), and transformant DNA was isolated, sequenced and analyzed in Ig Blast.

BALB/c splenic B cells = test: Alanine-substituted gp41 MPER mutant tetramers: binding to BALB/c splenic B cells (flow cytometry); type: cell-based, mouse (BALB/c); conditions: APC mutant tetramers 100 ng/10^6 cells, MFI; average of two experiments; Fig. 7B middle
From the text: Figure 7 Mapping of gp41 MPER residues required for high frequency interactions with IgM^a. A) List of peptides (annotated numerically according to position of substitution) used to make mutant tetramers with sequential alanine substitutions (in red) along the gp41 MPER region containing the nominal 2F5 epitope. B) Comparison of gp41 MPER residues required for binding bnAb 2F5 with those required for allotypic interactions with IgM. Shown is relative binding of mutant tetramers with either 2F5 (upper panel), naïve BALB/c total splenic B cells (middle panel), and 9G8 (lower panel). Tetramers with corresponding substituted positions in the 2F5 epitope are indicated on the x-axis, with those in blue and red representing mutated residues with >3 and >10 fold binding reductions, respectively. For measuring mutant tetramer binding to 2F5, unlabeled versions of tetramers were used in SPR analysis, as described in Materials and Methods. […]
N-biotinylated, linker/spacer-containing peptides used to make tetramers are detailed in Table S4 and Fig. 7A. […] Purified tetramer preparations were determined using the Micro BSA protein assay kit (Pierce Biotechnology).
as §2

QQEKNEQELLELDKWASLWN [gp41 MPER tetramer, (residues 659–678 of the HIV-1 envelope)]
MFI binding pattern (in words) ([1]; C57BL/6 B cells, Fig. 1A, 1C): gp41 MPER-reactive C57BL/6 B cells scattered further out across the APC channel
gp41 MPER reactivity among B cell subsets (in words) ([1]; C57BL/6 MZ and B1a B cells, Table S2): did not reveal increased levels of MPER binding by MZ and B1a B cells
percentage of tetramer-reactive B cells ([1]; total splenic B cells (CD19^+), naïve C57BL/6, APC tetramer 100 ng/10^6 splenocytes, above background without tetramer, Fig. 1A representative histogram): 0.1–0.3%
gp41 MPER binding in congenic mice (in words) [2]: exhibited gp41 MPER binding identical to BALB/c animals
co-capping with surface Ig (in words) [3]: co-capped with surface Ig in BALB/c splenic B cells
VH family usage in gp41 MPER-reactive B cells (in words) [4]: most VH families were utilized at statistically comparable levels in gp41 MPER-reactive B cells, with the exception of two overutilized VH families: 36–60 and 7183
gp41 MPER residues required for binding (in words) (BALB/c splenic B cells): mapped to 660Q and a 677 W, both located outside the core 2F5 epitope
